{"source": "patent US7365191B2", "about": "“Type of oligosaccharides and their sulfate derivatives” (Shanghaimed Co., Ltd, priority 2001, dated 2008)", "key": {"U14 tumor cells": {"test_system": "U14 tumor cells", "assay": "Inhibition of U14 tumor implanted in mice", "settings": "for inhibition (%) / quotient of noumenal tumor (%): U14 implanted mice; for quotient of noumenal tumor (%): ±SD", "method": "Thus, the inhibition of tumor cells by the said oligosaccharides was tested using implanted tumor cells in mice. • (1) Tests of the said Oligosaccharides and their Sulfates on Mice in which Tumor Cells were Implanted. A. Materials and Methods\nCell line for the tests: U14 cell line was procured from The Tumor Research Group, The Institute of Chinese Herbal Medicine, Chinese Academy of Traditional Chinese Medicine;\nAnimals for the tests: 70 Kunming male mice (weight 20±2 g, grade II) were obtained from the Experimental Animal Center, the Chinese Academy of Medicine.\nMedicine for control test: Cyclophosphamide was obtained from Shanghai Hualian Pharmaceutical Ltd, permit number 012034, 1995, Shanghai.\nMice grouping and administration: • a. U14 cell line group: physical saline, IP, 0.2 mL/d×10 d • b. Group treated with hexasaccharide 18: IP 10 mg/kg×10 d, 0.2 mL/d • c. Group treated with octyl hexaoside 18′: IP 10 mg/kg×10 d, 0.2 mL/d • d. Group treated with heptasaccharide 24: IP 10 mg/kg×10 d, 0.2 mL/d • e. Group treated with sulfated hexaose 25: IP 10 mg/kg×10 d, 0.2 mL/d • f. Group treated with cyclophosphamide: IP, 70 mg/kg×10 d, 0.1 mL/d (Cyclophosphamide was given to the mice by intraperitoneal at 24 h after the planting. After 48 h of the 1st injection, the 2nd injection was given, and after 48 h of the 2nd injection, the last injection was given). Test: U14 cells obtained from U14 mouse were diluted and counted. Each mouse was implanted with 0.2 ml (corresponding to 4×10^6 cells). A total of sixty mice were implanted. B. Test Results\n1 h post administration of the last dose, the mice were weighed. The right-upper arm of the mice was cut after sterilization, and the tumor section was removed. The quotient of noumenal tumor (%) and inhibition (%) were calculated."}, "spleen B lymphocytes": {"test_system": "spleen B lymphocytes", "assay": "Immune enhancing activity: 3H-thymidine incorporation of spleen B lymphocytes from treated C57 mice, stimulated with Bal/bc lymphocytes", "type": "in vivo", "settings": "0.1 mL/d × 8d", "method": "a. Medicine and reagents: synthetic lentinan hexaose 18, synthetic lentinan methyl α-heptaoside 24, synthetic lentinan octyl hexaoside 18′, lentinan (brand: Tian Di Xin) is produced by Nanjing Zhenzhong Biotech Ltd.\nb. Animals: C57 mice were provided by Animal Center, Academia Sinica, weighing 20±2 g.\nc. grouping and administration: the 50 mice were randomly allocated to 10 groups according to weight\nThe mice were injected IP with different doses of lentinan oligosaccharides listed above. […] Then the spleen B lymphocytes were extracted. The following experiment was then performed with the extracted lymphocytes: the 10^6 B cells were transferred to 96-well “U” shaped bottom plate, then the lymphocytes of Bal/bc mice were used as antigens to stimulate the B cells. After 4 days, ^3H-Thymidine was intermingled with the system and the B cells were collected 18 hours after. The isotopic incorporation was assessed by scintillation counting. Compared with positive control and minus control, the immuno-enhanced effect of these oligosaccharides was evaluated."}, "[1]": {"test_system": "leukocyte infiltrate in air pouch", "assay": "Thioglycollate-induced air pouch inflammation in mice", "type": "in vivo, mouse", "settings": "dose 25 mg/kg subq.", "method": "Test method: Subcutaneous air pouches were formed on the backs of mice by injecting 5 mL of sterile air below the skin of a shaved area between the scapulae of an anaesthetized mouse. After 2 days post-injection the pouch was reinflated by the injection of 2.5 mL of air. Inflammation was induced on day 6 by injecting directly into the pouch 1.0 mL of 56 mg/mL thioglycollate or 1.0 mL of saline as a control. Approximately 17-20 h after thioglycollate injection, the animals were killed, and the cellular contents of the pouch retrieved by the injection of 2.5 mL of PBS/5% FCS. The sulfated octyl hexaoside 25 was tested for its ability to inhibit the inflammatory reaction by being injected subq. in a separate site immediately following administration of the thioglycollate. Prednisolone was used as a control anti-inflammatory drug, and was injected subq. at 25 mg/kg. The total cellular contents of each pouch were determined using a Coulter Counter and different leukocyte subpopulations were assessed by immunofluorescent flow cytometry."}, "[2]": {"settings": "IP 10 mg/kg×10 d (dose of 17 not given)"}, "[3]": {"settings": "IP 10 mg/kg, relative to control"}}, "data": [{"molecule": "CCCCCCCCOC1OC(COC2OC(CO)C(O)C(O)C2O)C(O)C(OC2OC(CO)C(O)C(OC3OC(COC4OC(CO)C(O)C(O)C4O)[C@@H](O)C(OC4OC(CO)C(O)C(O)C4O)C3O)C2O)C1O", "note": "(stereo partly shown) [18′]", "values": [{"measurement": "inhibition (%)", "setting": "U14 tumor cells; [2]", "result": 58.43, "unit": "%"}, {"measurement": "quotient of noumenal tumor (%)", "setting": "U14 tumor cells; [2]", "result": "1.54 ± 0.56", "unit": "%"}, {"measurement": "3H-TdR incorporation", "setting": "spleen B lymphocytes; IP 1 mg/kg, control 3394", "result": 5547}, {"measurement": "enhancement rate (%)", "setting": "spleen B lymphocytes; IP 1 mg/kg, control = 100", "result": 163, "unit": "%"}, {"measurement": "3H-TdR incorporation", "setting": "spleen B lymphocytes; IP 10 mg/kg, control 3045", "result": 6082}, {"measurement": "enhancement rate (%)", "setting": "spleen B lymphocytes; [3]", "result": 200, "unit": "%"}]}, {"molecule": "OCC1OC(OCC2OC(O)C(O)C(OC3OC(CO)C(O)C(OC4OC(COC5OC(CO)C(O)C(O)C5O)[C@@H](O)C(OC5OC(CO)C(O)C(O)C5O)C4O)C3O)C2O)C(O)C(O)C1O", "note": "(stereo partly shown) [compound 18]", "values": [{"measurement": "inhibition (%)", "setting": "U14 tumor cells; [2]", "result": 29.41, "unit": "%"}, {"measurement": "quotient of noumenal tumor (%)", "setting": "U14 tumor cells; [2]", "result": "2.63 ± 0.90", "unit": "%"}, {"measurement": "3H-TdR incorporation", "setting": "spleen B lymphocytes; IP 1 mg/kg, control 3394", "result": 5497}, {"measurement": "enhancement rate (%)", "setting": "spleen B lymphocytes; IP 1 mg/kg, control = 100", "result": 162, "unit": "%"}, {"measurement": "3H-TdR incorporation", "setting": "spleen B lymphocytes; IP 10 mg/kg, control 3045", "result": 6084}, {"measurement": "enhancement rate (%)", "setting": "spleen B lymphocytes; [3]", "result": 200, "unit": "%"}]}, {"molecule": "COC1OC(CO)[C@@H](O)C(O[C@H]2OC(CO[C@@H]3OC(CO)[C@@H](O)C(O)C3O)[C@@H](O)C(O[C@@H]3OC(CO)[C@@H](O)C(O[C@H]4OC(CO[C@@H]5OC(CO)[C@@H](O)C(O)C5O)[C@@H](O)C(O[C@@H]5OC(CO)[C@@H](O)C(O)C5O)C4O)C3O)C2O)C1O", "note": "(stereo partly shown) [compound 24]", "values": [{"measurement": "inhibition (%)", "setting": "U14 tumor cells; [2]", "result": 41.21, "unit": "%"}, {"measurement": "quotient of noumenal tumor (%)", "setting": "U14 tumor cells; [2]", "result": "2.54 ± 1.89", "unit": "%"}, {"measurement": "3H-TdR incorporation", "setting": "spleen B lymphocytes; IP 1 mg/kg, control 3394", "result": 5546}, {"measurement": "enhancement rate (%)", "setting": "spleen B lymphocytes; IP 1 mg/kg, control = 100", "result": 163, "unit": "%"}, {"measurement": "3H-TdR incorporation", "setting": "spleen B lymphocytes; IP 10 mg/kg, control 3045", "result": 5087}, {"measurement": "enhancement rate (%)", "setting": "spleen B lymphocytes; [3]", "result": 167, "unit": "%"}]}, {"molecule": "O=P1(N(CCCl)CCCl)NCCCO1", "note": "(stereo not shown) [cyclophosphamide, Cyclophosphamide, reference compound]", "values": [{"measurement": "inhibition (%)", "setting": "U14 tumor cells; cyclophosphamide IP 70 mg/kg", "result": 43.89, "unit": "%"}, {"measurement": "quotient of noumenal tumor (%)", "setting": "U14 tumor cells; cyclophosphamide IP 70 mg/kg", "result": "1.86 ± 0.73", "unit": "%"}, {"measurement": "weight", "setting": "U14 tumor cells; mouse weight 1 h after last dose, cyclophosphamide IP 70 mg/kg", "result": "28.00 ± 1.78", "unit": "g"}]}, {"molecule": "C[C@]12C=CC(=O)C=C1CC[C@@H]1[C@@H]2[C@@H](O)C[C@@]2(C)[C@H]1CC[C@]2(O)C(=O)CO", "note": "[prednisolone, Prednisolone]", "values": [{"measurement": "leukocyte infiltrate in air pouch in comparison to the control", "setting": "[1]", "result": "56±14", "unit": "%"}]}]}
